This note sets out measurements from patent US11634447B2 (priority 2012, dated 2023).

Where “and” joins values, the source holds several entries; their conditions need not be identical. Identical values can stand only once.

In assay [1] the test system is bacterial strain LF82 binding to the glycoprotein BSA-(Mannose)3. Kind of assay: Bacterial Binding Assay (BBA). The assay is classed as cell-based, Escherichia coli. To be noted: read-out: Bacterial Binding Assay IC50, LF82/Luciferase strain binding to BSA-(Man)3 coated plates, luminescence. The essentials: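 Inhibition of LF82/luciferase E. coli adhesion is read as luminescence after washing off unbound cells. Compound and bacteria (10^7 per well) are co-incubated 40-75 min at room temperature on wells coated with 0.5-2 μg/mL BSA-(Man)3, with BSA-only wells as background; IC50 values derived.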

Assay [2] addresses T1, FimH-CRD (Escherichia coli, UniProt P08191).
T1 construct: The first 177 amino acids of the FimH protein are expressed as a fusion protein; thrombin tag (printed as 'fusion protein with thrombin') (cleaved yes); made in house; host or cells: bacteria (pET21b plasmid)
Put plainly: Competitive binding assay by fluorescence polarization, assay 1 (compounds prepared by manual dilution). Further details: species or system E. coli. The essentials:
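FimH-CRD (residues 1-177, tag removed) at 60 nM competed against 5 nM Alexa 647 mannoside probe in 50 mM Tris-Cl pH 7.0, 100 mM NaCl, 1 mM EDTA, 5 mM β-mercaptoethanol, 0.05% BSA, 2.5% DMSO; 5 h, room temperature, dark. Compounds 0.4 nM-75 μM final, 12-point 3-fold, duplicate; Kd from fluorescence polarization displacement curves. Assay 1: manual dilution; assay 2: robotic dilution, plates frozen/thawed.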

Assay [3] concerns the target T1, FimH-CRD. Put plainly: Competitive binding assay by fluorescence polarization, assay 2 (compounds prepared by a robotics system, plates frozen and thawed). Set-up: species or system E. coli. To be noted: Assay 2 Kd, 5 nM Alexa 647 mannoside probe, 60 nM FimH-CRD, replicate values in one cell. Here is the method:
The first 177 amino acids of the FimH protein are expressed as a fusion protein with thrombin in a pET21b plasmid in bacteria. This FimH protein sequence contains the carbohydrate recognition domain (CRD) and shall be termed FimH-CRD. Following bacterial expression of the protein, the FimH-CRD protein is purified to homogeneity and the thrombin tag removed by protease cleavage. A competitive binding assay by fluorescence polarization is performed using 5 nM of the Alexa 647 mannoside probe and 60 nM of the FimH-CRD. The samples are assayed in a low volume 384 well microtiter plate in a final volume of 20 μl. The final assay buffer conditions are the following, 50 mM Tris-Cl, ph 7.0, 100 mM NaCl, 1 mM EDTA, 5 mM β-mercaptoethanol, 0.05% BSA and 2.5% DMSO. Two assays are performed for FimH, termed assay 1 or assay 2. The assay conditions are the same for both assays except the following: assay 1 has compounds prepared by manual dilution in a serial dilution factor with 12-point dose response while assay 2 has compounds prepared by a robotics system also through a serial dilution factor (12 point dose response) and initially prepared in duplicate in 384 well-Corning polypropylene round bottom plates. The assay 2 plates have compound which is then frozen and must be thawed prior to use. Initially the Alexa 647 probe and the FimH-CRD are added to the assay buffer and then 0.5 μl of test compound (assay 1 or 2) between 0.4 nM to 75 μM final concentration are added (12 point titration with 3-fold serial dilution). Control wells for the Alexa 647 probe are prepared with the same conditions except for the addition of the FimH-CRD protein. Plates are then incubated for 5 hrs at room temperature in the dark and under humid conditions to prevent drying. Plates are read using the SpectraMax Paradigm multi-mode plate reader and the appropriate fluorescent polarization detection cartridge (Alexa-647).
Alexa 647 mannoside probe is prepared using the similar procedure reported for FAM mannoside (Han, Z. et. al., 2010, J. Med. Chem., 53, 4779) and is described in the scheme below.
To a blue colored stirred solution of (2S,3S,4S,5S,6R)-2-(4-aminobutoxy)-6-(hydroxymethyl)tetrahydropyran-3,4,5-triol (2.21 mg, 0.009 mmol) and the (2E)-2-[(2E,4E)-5-[3,3-dimethyl-5-sulfonato-1-(3-sulfonatopropyl)indol-1-ium-2-yl]penta-2,4-dienylidene]-3-[6-(2,5-dioxopyrrolidin-1-yl)oxy-6-oxo-hexyl]-3-methyl-1-(3-sulfonatopropyl)indoline-5-sulfonate (Potassium Ion (3)) (4.9 mg, 0.0044 mmol) in DMF (44 μL) is added Et3N (5.4 mg, 7.0 μL, 0.053 mmol) at RT. The solution is stirred at room temperature over night, concentrated, dissolved in water and purified on 12 g C-18 silica gel cartridge on Isolera system using acetonitrile in water (0 to 40%, 10 CV) and followed by lyophilization to afford Alexa 647 mannoside probe (3.3 mg, 34%) as deep blue solid.
The Kd values of the compounds are determined from dose response curves using twelve concentrations per compound in duplicate. Curves are fitted to data points using Fluorescence Polarization competitive displacement analysis, and Kds are interpolated from the resulting curves using GraphPad Prism software, version […] (GraphPad software Inc., San Diego, Calif., USA).

[4] abbreviates: Assay 1 Kd, 5 nM Alexa 647 mannoside probe, 60 nM FimH-CRD, replicate values in one cell.
[5] abbreviates: read-out: Assay 1 Kd, 5 nM Alexa 647 mannoside probe, 60 nM FimH-CRD, replicate values in one cell.

A word on the Kd: it is the equilibrium constant for the complex coming apart.

T1 sequence (P08191 22-177): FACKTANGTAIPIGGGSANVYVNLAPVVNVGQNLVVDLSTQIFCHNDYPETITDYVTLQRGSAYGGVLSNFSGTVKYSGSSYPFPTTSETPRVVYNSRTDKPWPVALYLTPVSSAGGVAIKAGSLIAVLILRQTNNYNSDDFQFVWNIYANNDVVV

Take `OC[C@H]1O[C@H](c2ccc(-c3ccc([C@H]4O[C@H](CO)[C@@H](O)[C@H](O)[C@@H]4O)cc3)cc2)[C@@H](O)[C@@H](O)[C@@H]1O` [Compound 6, (2R,2 ,3S,3,4R,4,5S,5,6R,6)-6,6([1,1Biphenyl]-4,4diyl)bis(2-(hydroxymethyl)tetrahydro-2H-pyran-3,4,5-triol)]: in assay [1], the IC50 was found to be 95 nM. In addition, the equilibrium dissociation constant (Kd) at FimH-CRD [2] (setting [4]) was below 5 nM; on FimH-CRD [2] (setting [5]), below 5 nM; at FimH-CRD [3], < 5 nM and 23 nM.

On to `OC[C@H]1O[C@H](C/C=C/c2cccc(C#C[C@H]3O[C@H](CO)[C@@H](O)[C@H](O)[C@@H]3O)c2)[C@@H](O)[C@@H](O)[C@@H]1O` [Compound 40, ((2R,3S,4R,5S,6R)-2-(Hydroxymethyl)-6-[(E)-3-[3-[2-[(2R,3S,4R,5S,6R)-3,4,5-trihydroxy-6-(hydroxymethyl)tetrahydropyran-2-yl]ethynyl]phenyl]allyl]tetrahydropyran-3,4,5-triol)], for which, in assay [1], the IC50 was determined as 43 nM. Moreover, the Kd on FimH-CRD [2] (setting [4]) is < 5 nM and 18 nM; on FimH-CRD [3], 8 nM and 10 nM.

Turning to `OC[C@H]1O[C@H](C/C=C/c2cccc(/C=C/C[C@H]3O[C@H](CO)[C@@H](O)[C@H](O)[C@@H]3O)c2)[C@@H](O)[C@@H](O)[C@@H]1O` [Compound 25, ((2R,3S,4R,5S,6R)-2-(Hydroxymethyl)-6-[(E)-3-[3-[(E)-3-[(2R,3S,4R,5S,6R)-3,4,5-trihydroxy-6-(hydroxymethyl)tetrahydropyran-2-yl]prop-1-enyl]phenyl]allyl]tetrahydropyran-3,4,5-triol)], in assay [1], the IC50 was 1400 nM. Also, the Kd at FimH-CRD [2] (setting [4]) is below 5 nM; at FimH-CRD [2] (setting [5]), below 5 nM; on FimH-CRD [3], 21 nM and 10 nM and 12 nM.

Regarding `OC[C@H]1O[C@H](c2cccc(OCCCOc3cccc([C@H]4O[C@H](CO)[C@@H](O)[C@H](O)[C@@H]4O)c3)c2)[C@@H](O)[C@@H](O)[C@@H]1O` [Compound 44, ((2R,3S,4R,5S,6R)-2-(Hydroxymethyl)-6-[3-[3-[3-[(2R,3S,4R,5S,6R)-3,4,5-trihydroxy-6-(hydroxymethyl)tetrahydropyran-2-yl]phenoxy]propoxy]phenyl]tetrahydropyran-3,4,5-triol)], the IC50 in assay [1] came out at 480 nM. The Kd was below 5 nM on FimH-CRD [2] (setting [4]), below 5 nM at FimH-CRD [2] (setting [5]) and 6 nM on FimH-CRD [3].

For `OC[C@H]1O[C@H](CCc2ccc(CC[C@H]3O[C@H](CO)[C@@H](O)[C@H](O)[C@@H]3O)cc2)[C@@H](O)[C@@H](O)[C@@H]1O` [Compound 22, ((2R,3S,4R,5S,6R)-2-(Hydroxymethyl)-6-[2-[4-[2-[(2R,3S,4R,5S,6R)-3,4,5-trihydroxy-6-(hydroxymethyl)tetrahydropyran-2-yl]ethyl]phenyl]ethyl]tetrahydropyran-3,4,5-triol)], the IC50 in assay [1] was 1600 nM. Also, the dissociation constant Kd on FimH-CRD [2] (setting [4]) is < 5 nM and 12 nM; on FimH-CRD [3], 14 nM and < 5 nM and 11 nM.

On to `OC[C@H]1O[C@H](c2ccc([C@H]3O[C@H](CO)[C@@H](O)[C@H](O)[C@@H]3O)cc2)[C@@H](O)[C@@H](O)[C@@H]1O` [Compound 1, (2R,3S,4R,5S,6R)-2-(Hydroxymethyl)-6-[4-[(2R,3S,4R,5S,6R)-3,4,5-trihydroxy-6 (hydroxymethyl)tetrahydropyran-2-yl]phenyl]tetrahydropyran-3,4,5-triol], for which the IC50 in assay [1] is 5270 nM. Further, the dissociation constant (Kd) is < 5 nM (2×) and 8 nM at FimH-CRD [2] (setting [4]); 13 nM and 8 nM on FimH-CRD [3].

With `O=C(Nc1ccc(Cc2ccc(NC(=O)c3cccc([C@H]4O[C@H](CO)[C@@H](O)[C@H](O)[C@@H]4O)c3)cc2)cc1)c1cccc([C@H]2O[C@H](CO)[C@@H](O)[C@H](O)[C@@H]2O)c1` [Compound 16], the IC50 in assay [1] came out at 1510 nM. Moreover, the equilibrium dissociation constant (Kd) was < 5 nM and 6 nM at FimH-CRD [2] (setting [4]); 26 nM and < 5 nM and 9 nM at FimH-CRD [3].

Consider `OC[C@H]1O[C@H](c2ccc(-c3cccc([C@H]4O[C@H](CO)[C@@H](O)[C@H](O)[C@@H]4O)c3)cc2)[C@@H](O)[C@@H](O)[C@@H]1O` [Compound 5, (2R,2,3S,3,4R,4,5S,5,6R,6)-6,6([1,1Biphenyl]-3,4diyl)bis(2-(hydroxymethyl)tetrahydro-2H-pyran-3,4,5-triol)], for which the IC50 in assay [1] came out at 580 nM. Further, the Kd is below 5 nM on FimH-CRD [2] (setting [4]); below 5 nM at FimH-CRD [2] (setting [5]); 49 nM and < 5 nM (2×) at FimH-CRD [3].

Consider `O=C(NCCCCCCCCNC(=O)c1cccc([C@H]2O[C@H](CO)[C@@H](O)[C@H](O)[C@@H]2O)c1)c1cccc([C@H]2O[C@H](CO)[C@@H](O)[C@H](O)[C@@H]2O)c1` [Compound 14, (R,R,S,R,S)-N,N′-(Octane-1,8-diyl)bis(3-((2R,3S,4R,5S,6R)-3,4,5-trihydroxy-6-(hydroxymethyl)tetrahydro-2H-pyran-2-yl)benzamide)], for which the IC50 in assay [1] came out at 4100 nM. The Kd at FimH-CRD [2] (setting [4]) was 11 nM and 13 nM; at FimH-CRD [3] it was 43 nM and 6 nM and 14 nM.

For `OC[C@H]1O[C@H](CCCC[C@H]2O[C@H](CO)[C@@H](O)[C@H](O)[C@@H]2O)[C@@H](O)[C@@H](O)[C@@H]1O` [Compound 23], in assay [1], the IC50 turned out to be 5800 nM. For the same compound, the Kd is 9 nM and 12 nM at FimH-CRD [2] (setting [4]); 25 nM and < 5 nM and 14 nM on FimH-CRD [3].

For `OC[C@H]1O[C@H](CCCc2ccc(CCC[C@H]3O[C@H](CO)[C@@H](O)[C@H](O)[C@@H]3O)cc2)[C@@H](O)[C@@H](O)[C@@H]1O` [Compound 38, (2R,3S,4R,5S,6R)-2-(hydroxymethyl)-6-[3-[4-[3-[(2R,3S,4R,5S,6R)-3,4,5-trihydroxy-6-(hydroxymethyl)tetrahydropyran-2-yl]propyl]phenyl]propyl]tetrahydropyran-3,4,5-triol], the IC50 in assay [1] worked out at 410 nM. The Kd at FimH-CRD [2] (setting [4]) is below 5 nM; on FimH-CRD [2] (setting [5]) it was below 5 nM; on FimH-CRD [3], < 5 nM (2×) and 21 nM.

Take `OC[C@H]1O[C@H](CCc2cccc([C@H]3O[C@H](CO)[C@@H](O)[C@H](O)[C@@H]3O)c2)[C@@H](O)[C@@H](O)[C@@H]1O` [Compound 37, ((2R,3S,4R,5S,6R)-2-(Hydroxymethyl)-6-[2-[3-[(2R,3S,4R,5S,6R)-3,4,5-trihydroxy-6-(hydroxymethyl)tetrahydropyran-2-yl]phenyl]ethyl]tetrahydropyran-3,4,5-triol)]: the IC50 in assay [1] was found to be 1650 nM. In addition, the Kd is 7 nM at FimH-CRD [2] (setting [4]); 18 nM and < 5 nM and 12 nM on FimH-CRD [3].
